Source: patent US8221736B2, “Semiochemical” (Rothamsted Research Limited, priority 1999, dated 2012)
Marks after values point to notes of the source that are not given here.

How the values were obtained:
Type in all cases: in vivo
[1] = test system: aphid parasitoid Aphidius ervi; assay: Wind tunnel responses of A. ervi to V. faba plants exposed to the compound
Experimental: A possible role for the compound as an airborne plant signal was investigated using the broad bean, V. faba (cv The Sutton). Plants were kept for 24 hours in clean air or in air incorporating cis-jasmone at 100 μg/l; subsequently, samples of volatiles released by the plants were obtained by entrainment over 4 periods of 48 hours, i.e. up to 192 hours after the end of the treatment. The cis-jasmone itself was undetectable after 48 hours. […] There was also, from some replicates, enhancement of (E,E)-α-farnesene, (−)-β-caryophyllene and (E)-4,8-dimethyl-1,3,7-nonatriene. These compounds have all been implicated in herbivorous insect-induced production and increased parasitoid foraging. The nonatriene can also be produced innately by plants imitating damage for defence against herbivores and which are thus attractive to parasitoids.
Naive female A. ervi were flown in a wind tunnel, as described in J. Chem. Ecol. 16, 381-396 (1996) (Poppy et al.). The parasitoids were released 25 cm downwind (single choice tests) or 40 cm downwind (dual choice test) of the target, which was either a plant or a synthetic compound (10 μg in 10 μl hexane) placed on a 2×1 cm strip of filter paper (Whatman No. 1) surrounded by a ring of green crêpe paper. The proportions of parasitoids responding with an oriented flight to the synthetic chemicals were calculated each day on 3 separate days. These values were then subjected to a logit transformation to normalize the data before being analysed by ANOVA followed by Tukey post-hoc tests. The number of parasitoids orienting upwind to the single plant target were recorded and subjected to a χ^2 contingency test (Pearson method on Genstat—see Genstat 5 Committee. Genstat 5 Reference Manual, Release 3 (Clarendon Press, Oxford, 1993)) to determine whether an orienting response was linked to the type of plant treatment. The numbers orienting to each plant in the dual choice test were analysed by a χ^2 to determine whether one plant was more attractive than the other. […]

[2] = test system: aphid parasitoid Aphidius ervi; assay: Wind tunnel single choice test of A. ervi with synthetic compounds on filter paper; conditions: 10 μg on filter paper, hexane control 26.7
From the text: Since semiochemicals acting as repellents or inhibitors of host attractancy for herbivorous insects are often involved in predation or parasitism, the activity of cis-jasmone was also investigated at higher trophic levels. […] These experiments indicate a behavioural role for cis-jasmone in influencing interactions between plants, herbivorous insects and their predators and parasitoids. Naive female A. ervi were flown in a wind tunnel, as described in J. Chem. Ecol. 16, 381-396 (1996) (Poppy et al.). The parasitoids were released 25 cm downwind (single choice tests) or 40 cm downwind (dual choice test) of the target, which was either a plant or a synthetic compound (10 μg in 10 μl hexane) placed on a 2×1 cm strip of filter paper (Whatman No. 1) surrounded by a ring of green crêpe paper. The proportions of parasitoids responding with an oriented flight to the synthetic chemicals were calculated each day on 3 separate days. These values were then subjected to a logit transformation to normalize the data before being analysed by ANOVA followed by Tukey post-hoc tests. The number of parasitoids orienting upwind to the single plant target were recorded and subjected to a χ^2 contingency test (Pearson method on Genstat—see Genstat 5 Committee. Genstat 5 Reference Manual, Release 3 (Clarendon Press, Oxford, 1993)) to determine whether an orienting response was linked to the type of plant treatment. The numbers orienting to each plant in the dual choice test were analysed by a χ^2 to determine whether one plant was more attractive than the other.

[3] = test system: seven-spot ladybird, Coccinella seplempunclata; assay: Olfactometer assay with seven-spot ladybird; conditions: 0.5 μl microcaps, position noted every 2 min for 20 min, 8 replicates; control arms 2.4±0.69; P<0.005
From the text: Since semiochemicals acting as repellents or inhibitors of host attractancy for herbivorous insects are often involved in predation or parasitism, the activity of cis-jasmone was also investigated at higher trophic levels. […] These experiments indicate a behavioural role for cis-jasmone in influencing interactions between plants, herbivorous insects and their predators and parasitoids. Apparatus and methodology were similar to that employed for aphids (above). The test compound was applied in 0.5 μl microcaps (Drummond Sci. Co.) at the end of one of the side arms and each arm was supplied with moist filter paper to minimize differences in relative humidity. Individual C. septempunctata were introduced into the centre of the arena and their positions noted every 2 min for 20 min. The experiment was replicated 8 times and results analysed as above.

[4] = test system: hop aphid, Phorodon humuli; assay: Preliminary field trials, yellow water traps, hop aphid summer morphs; conditions: slow release 2.05 μg/day/trap; P<0.04
pollen beetles = assay: Field-trapping experiments with yellow bowl traps against pollen beetles
Experimental: Field-trapping experiments were also conducted using cis-jasmone against pollen beetles. Attractive yellow bowl traps, at 1 m height and 10 m spacing, were placed in a Latin square design (one row of the Latin square=one replicate; traps are re-randomized to the next row of the square when a mean of 10 beetles are caught per trap). Catches in an unbaited bowl were compared with those bowls baited with cis-jasmone released at two different rates. Analysis was by ANOVA, on transformed total catch data. The transformation used was x=log10(y+1), where x and y are the transformed and untransformed data, respectively. Transformed means were compared using the LSD (least […] difference) test and transformed back to give the results as set out in Table 1.
P<0.05. Numbers in brackets are the percent reduction in trap catch compared with the unbaited trap.

`CC/C=C\CC1=C(C)CCC1=O` [cis-jasmone] was tested, and the “% showing oriented flight” value ([1]; V. faba plants 48 hr after exposure (100 μg/l in air), single choice test, hexane control 20, P<0.01) was 44%, the “parasitoids oriented towards the treated plant compared to the control” value ([1]; dual choice test of treated or untreated plants) was “over 3 times” and the “% oriented to treated plant” value ([1]; dual choice test, treated plant versus control plant, 48 hr after exposure (100 μg/l in air), control plant 10, P<0.05) was 32%. For the same compound, the “% showing oriented flight” value [2] was 53.1^a %, the “mean number of observations in the treated arm” value [3] was 4.1±1.55 and the “reduction of catches in water traps with visual (yellow) attractancy” value [4] was 40%. For the same compound, the “percent reduction in trap catch compared with the unbaited trap” value (“percent reduction in trap catch” for short) (pollen beetles; Analysis A, 2.2 mg/day) was “(44%)”, the “Back-transformed mean catch per replicate” value (pollen beetles; Analysis A, 2.2 mg/day, unbaited trap 127.3) was 70.9^b and the “percent reduction in trap catch” value (pollen beetles; Analysis A, 25 mg/day) was “(59%)”. For the same compound, the “Back-transformed mean catch per replicate” value (pollen beetles; Analysis A, 25 mg/day, unbaited trap 127.3) was 51.7^c, the “percent reduction in trap catch” value (pollen beetles; Experiment A, 2.2 mg/day) was “(21%)” and the “Back-transformed mean catch per replicate” value (pollen beetles; Experiment A, 2.2 mg/day, unbaited trap 48.3) was 38.2^ab. For the same compound, the “percent reduction in trap catch” value (pollen beetles; Experiment A, 25 mg/day) was “(35%)”, the “Back-transformed mean catch per replicate” value (pollen beetles; Experiment A, 25 mg/day, unbaited trap 48.3) was 31.4^b and the “percent reduction in trap catch” value (pollen beetles; Experiment B, 2.2 mg/day) was “(60%)”. For the same compound, the “Back-transformed mean catch per replicate” value (pollen beetles; Experiment B, 2.2 mg/day, unbaited trap 333.1) was 130.7^bc, the “percent reduction in trap catch” value (pollen beetles; Experiment B, 25 mg/day) was “(75%)” and the “Back-transformed mean catch per replicate” value (pollen beetles; Experiment B, 25 mg/day, unbaited trap 333.1) was 84.6^c.
